Experimental data published in ChEMBL document CHEMBL3046035, “Synthesis and biological evaluation of novel 4,5-dihydropyrazole derivatives as potent anticancer and antimicrobial agents” (Med Chem Res, 2013).
In brackets after ≈: the same amount, converted by molar mass.

Legend:
[1] = test system: Bacillus subtilis; assay: Antimicrobial activity against Bacillus subtilis ATCC 60511 assessed as growth inhibition after 24 hr by broth microdilution method; assay type: functional; conditions: ATCC 60511, 24 h
[2] = test system: Staphylococcus aureus; assay: Antimicrobial activity against Staphylococcus aureus ATCC 11632 assessed as growth inhibition after 24 hr by broth microdilution method; assay type: functional; conditions: ATCC 11632, 24 h
[3] = test system: BGC-823; assay: Anticancer activity against Homo sapiens (human) BGC823 cells assessed as inhibition of cell viability after 96 hr by MTT assay; assay type: functional, cell-based; conditions: BGC-823, 96 h
[4] = test system: A549; assay: Anticancer activity against Homo sapiens (human) A549 cells assessed as inhibition of cell viability after 96 hr by MTT assay; assay type: functional, cell-based; conditions: A549, 96 h
[5] = test system: Enterococcus faecalis; assay: Antimicrobial activity against Enterococcus faecalis ATCC 14506 assessed as growth inhibition after 24 hr by broth microdilution method; assay type: functional; conditions: ATCC 14506, 24 h
[6] = test system: MCF7; assay: Anticancer activity against Homo sapiens (human) MCF7 cells assessed as inhibition of cell viability after 96 hr by MTT assay; assay type: functional, cell-based; conditions: MCF7, 96 h
[7] = test system: Aspergillus niger; assay: Antimicrobial activity against Aspergillus niger ATCC 6275 assessed as growth inhibition after 24 hr by broth microdilution method; assay type: functional; conditions: ATCC 6275, 24 h
[8] = test system: Escherichia coli; assay: Antimicrobial activity against Escherichia coli ATCC 10536 assessed as growth inhibition after 24 hr by broth microdilution method; assay type: functional; conditions: ATCC 10536, 24 h
[9] = test system: HeLa; assay: Anticancer activity against Homo sapiens (human) HeLa cells assessed as inhibition of cell viability after 96 hr by MTT assay; assay type: functional, cell-based
[10] = test system: Klebsiella pneumoniae; assay: Antimicrobial activity against Klebsiella pneumoniae ATCC 10031 assessed as growth inhibition after 24 hr by broth microdilution method; assay type: functional; conditions: ATCC 10031, 24 h
[11] = test system: Saccharomyces cerevisiae; assay: Antimicrobial activity against Saccharomyces cerevisiae ATCC 9763 assessed as growth inhibition after 24 hr by broth microdilution method; assay type: functional; conditions: ATCC 9763, 24 h
[12] = test system: A2780; assay: Anticancer activity against Homo sapiens (human) A2780 cells assessed as inhibition of cell viability after 96 hr by MTT assay; assay type: functional, cell-based; conditions: A2780, 96 h
[13] = test system: Pseudomonas aeruginosa; assay: Antimicrobial activity against Pseudomonas aeruginosa ATCC 10145 assessed as growth inhibition after 24 hr by broth microdilution method; assay type: functional; conditions: ATCC 10145, 24 h
[14] = test system: Candida tropicalis; assay: Antimicrobial activity against Candida tropicalis ATCC 1369 assessed as growth inhibition after 24 hr by broth microdilution method; assay type: functional; conditions: ATCC 1369, 24 h

SMILES | MIC [1] [µg/mL] | MIC [2] [µg/mL] | IC50 [3] [µM] | IC50 [4] [µM] | MIC [5] [µg/mL] | IC50 [6] [µM] | MIC [7] [µg/mL] | MIC [8] [µg/mL] | IC50 [9] [µM] | MIC [10] [µg/mL] | MIC [11] [µg/mL] | IC50 [12] [µM] | MIC [13] [µg/mL] | MIC [14] [µg/mL]
Oc1ccc(C2N=C(N3N=C(c4ccccc4)CC3c3c(F)cccc3F)S2)cc1 (configuration not stated) | 31.2 (≈ 74.1 µM) | 16 (≈ 38 µM) | 1.04 | 3.44 | 31.2 (≈ 74.1 µM) | 4.32 | 31.2 (≈ 74.1 µM) | 4 (≈ 9.49 µM) | 6.23 | 16 (≈ 38 µM) | 16 (≈ 38 µM) | 3.14 | 4 (≈ 9.49 µM) | 16 (≈ 38 µM)
NC(=S)N1N=C(c2ccccc2)CC1c1c(F)cccc1F (configuration not stated) | 8 (≈ 25.2 µM) | 31.2 (≈ 98.5 µM) | 1.84 | 2.55 | 31.2 (≈ 98.5 µM) | 2.15 | 62.5 (≈ 197 µM) | 62.5 (≈ 197 µM) | 6.25 | 62.5 (≈ 197 µM) | 125 (≈ 394 µM) | 3.62 | 31.2 (≈ 98.5 µM) | 31.2 (≈ 98.5 µM)
Fc1cccc(F)c1C1CC(c2ccccc2)=NN1C1=NC(c2ccccc2)S1 (configuration not stated) | 31.2 (≈ 77.1 µM) | 16 (≈ 39.5 µM) | 1.97 | 2.11 | 8 (≈ 19.7 µM) | 1.72 | 125 (≈ 308 µM) | 16 (≈ 39.5 µM) | 5.71 | 16 (≈ 39.5 µM) | 62.5 (≈ 154 µM) | 4.33 | 62.5 (≈ 154 µM) | 31.2 (≈ 77.1 µM)
Cc1ccc(C2N=C(N3N=C(c4ccccc4)CC3c3c(F)cccc3F)S2)cc1 (configuration not stated) | 16 (≈ 38.1 µM) | 16 (≈ 38.1 µM) | 3.22 | 4.21 | 8 (≈ 19.1 µM) | 3.23 | 62.5 (≈ 149 µM) | 8 (≈ 19.1 µM) | 6.59 | 4 (≈ 9.54 µM) | 62.5 (≈ 149 µM) | 5.14 | 4 (≈ 9.54 µM) | 125 (≈ 298 µM)
Cc1ccc(-c2csc(N3N=C(c4ccccc4)CC3c3c(F)cccc3F)n2)cc1 (configuration not stated) | 4 (≈ 9.27 µM) | 4 (≈ 9.27 µM) | 1.2 | 1.21 | 8 (≈ 18.5 µM) | 2.5 | 62.5 (≈ 145 µM) | 8 (≈ 18.5 µM) | 4.86 | 4 (≈ 9.27 µM) | 62.5 (≈ 145 µM) | 3.03 | 8 (≈ 18.5 µM) | 125 (≈ 290 µM)
O=C1CSC(N2N=C(c3ccccc3)CC2c2c(F)cccc2F)=N1 (configuration not stated) | 31.2 (≈ 87.4 µM) | 16 (≈ 44.8 µM) | 2.35 | 4.58 | 16 (≈ 44.8 µM) | 1.94 | 31.2 (≈ 87.4 µM) | 62.5 (≈ 175 µM) | 6.45 | 16 (≈ 44.8 µM) | 31.2 (≈ 87.4 µM) | 5.32 | 16 (≈ 44.8 µM) | 31.2 (≈ 87.4 µM)
CCn1cc(C(=O)O)c(=O)c2cc(F)c(N3CCNCC3)cc21 [NORFLOXACIN] | ≤ 1 | 5 (≈ 15.7 µM) |  |  | 5 (≈ 15.7 µM) |  |  | ≤ 1 |  | ≤ 1 |  |  | 5 (≈ 15.7 µM) | 
Cc1ccc(/C=N/NC(=O)Cc2csc(N3N=C(c4ccccc4)CC3c3c(F)cccc3F)n2)cc1 (configuration not stated) | 16 (≈ 31 µM) | 125 (≈ 242 µM) | 1.45 | 1.5 | 16 (≈ 31 µM) | 1.65 | 16 (≈ 31 µM) | 125 (≈ 242 µM) | 5.91 | 125 (≈ 242 µM) | 8 (≈ 15.5 µM) | 2.62 | 16 (≈ 31 µM) | 8 (≈ 15.5 µM)
O=[N+]([O-])c1ccc(-c2csc(N3N=C(c4ccccc4)CC3c3c(F)cccc3F)n2)cc1 (configuration not stated) | 16 (≈ 34.6 µM) | 16 (≈ 34.6 µM) | 1.05 | 1.93 | 16 (≈ 34.6 µM) | 2.09 | 16 (≈ 34.6 µM) | 125 (≈ 270 µM) | 5.76 | 16 (≈ 34.6 µM) | 125 (≈ 270 µM) | 2.26 | 31.2 (≈ 67.6 µM) | 125 (≈ 270 µM)
O=C(/C=C/c1c(F)cccc1F)c1ccccc1 | 125 (≈ 512 µM) | 31.2 (≈ 128 µM) |  |  | 125 (≈ 512 µM) |  | 62.5 (≈ 256 µM) | 125 (≈ 512 µM) |  | 125 (≈ 512 µM) | 62.5 (≈ 256 µM) |  | 8 (≈ 32.8 µM) | 62.5 (≈ 256 µM)
Fc1cccc(F)c1C1CC(c2ccccc2)=NN1c1nc(-c2ccc(Br)cc2)cs1 (configuration not stated) | 8 (≈ 16.1 µM) | 16 (≈ 32.2 µM) | 1.34 | 1.93 | 8 (≈ 16.1 µM) | 2.14 | 62.5 (≈ 126 µM) | 31.2 (≈ 63 µM) | 6.12 | 16 (≈ 32.2 µM) | 62.5 (≈ 126 µM) | 2.45 | 31.2 (≈ 63 µM) | 62.5 (≈ 126 µM)
Fc1cccc(F)c1C1CC(c2ccccc2)=NN1c1nc(-c2ccc(Cl)cc2)cs1 (configuration not stated) | 31.2 (≈ 69.1 µM) | 62.5 (≈ 138 µM) | 1.43 | 2.11 | 8 (≈ 17.7 µM) | 2.76 | 62.5 (≈ 138 µM) | 16 (≈ 35.4 µM) | 6.24 | 125 (≈ 277 µM) | 125 (≈ 277 µM) | 3.56 | 31.2 (≈ 69.1 µM) | 62.5 (≈ 138 µM)
CCOC(=O)Cc1csc(N2N=C(c3ccccc3)CC2c2c(F)cccc2F)n1 (configuration not stated) | 31.2 (≈ 73.1 µM) | 16 (≈ 37.4 µM) | 3.85 | 4.18 | 31.2 (≈ 73.1 µM) | 2.11 | 62.5 (≈ 146 µM) | 8 (≈ 18.7 µM) | 6.31 | 8 (≈ 18.7 µM) | 62.5 (≈ 146 µM) | 3.91 | 8 (≈ 18.7 µM) | 31.2 (≈ 73.1 µM)
COc1ccc(C2N=C(N3N=C(c4ccccc4)CC3c3c(F)cccc3F)S2)cc1 (configuration not stated) | 4 (≈ 9.18 µM) | 16 (≈ 36.7 µM) | 1.23 | 2.53 | 16 (≈ 36.7 µM) | 2.04 | 8 (≈ 18.4 µM) | 16 (≈ 36.7 µM) | 6.49 | 4 (≈ 9.18 µM) | 16 (≈ 36.7 µM) | 3.26 | 4 (≈ 9.18 µM) | 8 (≈ 18.4 µM)
OC(Cn1cncn1)(Cn1cncn1)c1ccc(F)cc1F [FLUCONAZOLE] |  |  |  |  |  |  | ≤ 1 |  |  |  | ≤ 1 |  |  | ≤ 1
O=C(O)c1cn(C2CC2)c2cc(N3CCNCC3)c(F)cc2c1=O [CIPROFLOXACIN] | ≤ 1 | ≤ 5 |  |  | ≤ 5 |  |  | ≤ 1 |  | ≤ 1 |  |  | 5 (≈ 15.1 µM) | 
